Measured values from US11104633B2, “Cancer treatment using compounds that selectively target polyploid cancer cells for disruption” (Chengdu Anticancer Bioscience, Ltd., priority 2017, dated 2021).

Experiments:
[1] = test system: MM-BRAF cells; experiment: Cell death / polyploidy in parental lung cancer cells; type: cell-based, mouse
[2] = test system: RPE-MYC cells; experiment: Hydroxyurea cytotoxicity in RPE-Myc cells (p53 function control); type: cell-based, human; details: p53 inhibition; FIG. 1A
Source text: (§1) The p53 function in RPE-Myc cells can be interfered with by either a small molecule inhibitor of p53, PFT-a, (FIG. 1A), or a dominant negative p53 mutant (FIG. 1B). […] In contrast, either of these reagents conferred more than 70% protection against the cytotoxicity elicited by hydroxyurea (FIG. 1A-B), confirming that the p53 function was compromised. The conclusion was that p53 was not required for the apoptosis elicited by VX-680 in cells overexpressing MYC.
(§2) Cell death assays in response to drug treatment were performed 24 h after cells were seeded in 24-well plates. Each experiment was done in triplicate and each experiment was repeated at least twice unless indicated otherwise. Dead cells were identified by the trypan blue exclusion assay. All values are expressed as mean±1 SD of the mean.

[3] = test system: RPE-MYC cells; experiment: VX-680-induced cell death in RPE-MYC cells and derivatives; type: cell-based
Source text: as §1
Survival signals are often mediated by the Ras-PI3K-Akt pathway. Overexpression of an active Hu-Ras^V12 elicited profound senescence in RPE-MYC cells, prevented generation of stable cell lines expressing Hu-Ras^V12, but were able to generate RPE-MYC cells expressing an active allele of MyrAkt. […] Thus, active signaling from Akt enhanced, rather than blocked, the apoptosis elicited by VX-680. The BCL family antiapoptotic factor Bcl2 is a critical regulator of mitochondrion-dependent apoptotic pathway by inhibiting cytochrome C release from mitochondria, whereas XIAP, the most characterized member of the IAP family, has been known to sequester and inactivate active caspases, proteases responsible for apoptosis. The overexpression of Bcl2 or Bcl-xL provided more than 40% protection against the cytotoxicity of VX-680 six days after administration of VX-680 (see, FIGS. 1C and 2) and that overexpression of XIAP has no effect on the MYC-dependent cytotoxicity (FIG. 1C).
Various RPEMYC derivatives used in this study were generated by stably transfecting human RPEMYC cells with a construct that expresses the gene of interest and selecting with 1 μg/ml of puromycin. Breast cancer cell line MD231MYC/Bcl2 was generated by engineering human MDA-MB-231 to stably express MYC and Bcl2. Lung cancer cell line MM-BRAF was created from mouse lung cancer model initiated by BRAF^V600E. All cell lines were cultured in DMEM supplemented with 10% fetal bovine serum and antibiotics at 5% CO2 and 95% air in a humidified incubator.
as §2

## COc1cc(Nc2ncc3c(n2)-c2ccc(Cl)cc2C(c2c(F)cccc2OC)=NC3)ccc1C(=O)O [MLN8237]
[1]; FIG. 6A legend
  effect on lung cancer cells: cytostatic effect
[1]; FIG. 6B legend
  induction of polyploidy: develop polyploidy

## Cc1ccc(C(=O)Cn2c3c(sc2=N)CCCC3)cc1 [PFT-a]
[2]
  protection against the cytotoxicity elicited by hydroxyurea: more than 70%
[3]; p53 inhibition, FIG. 1A
  protection from VX-680-induced cell death: Neither of these reagents protected

## Cc1cc(Nc2cc(N3CCN(C)CC3)nc(Sc3ccc(NC(=O)C4CC4)cc3)n2)[nH]n1 [VX-680]
[3]; FIG. 1C
  effect of overexpression of XIAP on the MYC-dependent cytotoxicity: no effect
[3]; RPE cells expressing both Myc and active Akt, FIG. 1C
  sensitivity to cytotoxicity, cells expressing Myc and active Akt versus Myc alone: moderately more sensitive
[3]; six days after administration, FIGS. 1C and 2
  protection against the cytotoxicity by overexpression of Bcl2 or Bcl-xL: more than 40%
[1]; in vitro, FIG. 6A
  cell death on exposure: failed to undergo cell death
[1]; treatment for 4 days, FIG. 6B
  induction of multinucleation and polyploidy: all cells became multinucleated and polyploid
